Literature values as cited in patent publication US20090005297A1 (priority 2004, published 2009).

Conditions: nonspecific PEGylation at amine groups with one or two 5 kDa PEG

With “variant aprotinin (T11 D, K15R, R17L, I18H, I19L, V34Y, R39L, K46E): variant aprotinin nonspecifically PEGylated at amine groups with one or two 5 kDa PEG (Stassen 1995)” as the substance, how does the in vivo effectiveness read?
Its in vivo effectiveness is “not improved”.
